Measured values published in ChEMBL document CHEMBL1136107, “Improvement of therapeutic index of phosphodiesterase type IV inhibitors as anti-Asthmatics” (Bioorg Med Chem Lett, 2003).
Calls of active or inactive are those of the source.

Assays:
Cavia porcellus [1] = experiment: Eosinophil infiltration in passively-sensitized guinea pig at 30 mg/kg peroral dose 90 min prior to challenge; format: functional; settings: route oral
Cavia porcellus [2] = experiment: Inhibition of bronchoconstriction in passively-sensitized guinea pig at 1 mg/kg iv dose 10 min prior to challenge; format: functional; settings: Lung
Mustela putorius furo = experiment: Emetic effect in ferrets after peroral administration at 0.03 mg/kg (2/5); format: functional, organism-based; parameters: dose 0.03 mg/kg

Compound `COc1ccc(/C=N/NC(N)=O)cc1OC1CCCC1` has an inhibition in vivo at 30 mg/kg (Cavia porcellus [1]) of 63% and an inhibition in vivo at 1 mg/kg (Cavia porcellus [2]) of 90.3%.
In the case of `COc1ccc(C2CNC(=O)C2)cc1OC1CCCC1` (stereo not given) [ROLIPRAM], the inhibition in vivo at 30 mg/kg (Cavia porcellus [1]) is reported as 62%, the inhibition in vivo at 1 mg/kg (Cavia porcellus [2]) is reported as 95.4% and the Emesis (Mustela putorius furo) is reported as “Partially active”.
